Several values for one entry are separate records, joined by “and”; a condition that tells them apart may be missing. Equal entries are not always repeated.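 Test compounds were applied to cells in 96-well plates for 48 hours at 5 doses. At the GI50, growth is halved. At the TGI there is no net growth.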
Assays:
Test in all cases: NCI-60 cell line screen, 48 h
HT29 colon = test system: HT29 colon
BT-549 breast = test system: BT-549 breast
SK-MEL-2 melanoma = test system: SK-MEL-2 melanoma
A549 NSCLC = test system: A549 NSCLC
TK-10 renal = test system: TK-10 renal
SR leukemia = test system: SR leukemia
SK-OV-3 ovarian = test system: SK-OV-3 ovarian
MDA-MB-435 = test system: MDA-MB-435
CAKI-1 renal = test system: CAKI-1 renal
PC-3 prostate = test system: PC-3 prostate

Row | SMILES | GI50 (HT29 colon) | TGI (HT29 colon) | GI50 (BT-549 breast) | TGI (BT-549 breast) | GI50 (SK-MEL-2 melanoma) | TGI (SK-MEL-2 melanoma) | GI50 (A549 NSCLC) | TGI (A549 NSCLC) | GI50 (TK-10 renal) | TGI (TK-10 renal) | GI50 (SR leukemia) | TGI (SR leukemia) [µM] | GI50 (SK-OV-3 ovarian) | TGI (SK-OV-3 ovarian) | GI50 (MDA-MB-435) | TGI (MDA-MB-435) [µM] | GI50 (CAKI-1 renal) | TGI (CAKI-1 renal) | GI50 (PC-3 prostate) | TGI (PC-3 prostate) [µM]
1 | O=c1cc/c(=N\Nc2ccccc2)c(=O)/c1=N/Nc1ccccc1 | > 50 µM | > 50 µM | > 50 µM | > 50 µM | > 50 µM | > 50 µM | > 50 µM | > 50 µM | > 50 µM | > 50 µM | > 50 µM | > 50 | > 50 µM | > 50 µM | > 50 µM | > 50 | > 50 µM | > 50 µM | > 50 µM | > 50
2 | O=C1C(NCCO)=C(N2CC2)C(=O)C(NCCO)=C1N1CC1 | – | > 81.8 µM | – | > 100 µM | – | > 73.9 µM | – | > 100 µM | – | > 100 µM | – | 51.6 | – | > 88 µM | – | > 100 | – | > 100 µM | – | > 100
3 | O=C(Nc1ccccc1Cl)c1cnc2ccc(C3CCNCC3)cn12 | 1.77 µM | 18.6 µM | > 73.7 µM | > 100 µM | 42.3 µM | > 94 µM | 11.5 µM | > 100 µM | 1.92 µM | 12.2 µM | 37.2 µM | > 100 | 3.05 µM | > 100 µM | 32.6 µM | > 100 | 1.51 µM | 12 µM | 14.3 µM | > 100
4 | FC(F)(F)c1ccc2c(c1)N(CCCN1CCN(C3CC3)CC1)c1ccccc1S2 | 3.48 µM | 13.8 µM | 16.7 µM | 35.4 µM | 18.9 µM | 34.9 µM | 10.9 µM | 23.5 µM | 13.8 µM | 27.2 µM | 3.79 µM | 15.6 | 12.9 µM | 26.6 µM | 12.2 µM | 27.6 | 3.6 µM | 16.1 µM | 5.81 µM | 20.2
5 | Cc1cccc2c3c(sc12)C(c1ccc(Cl)cc1)C(C#N)=C(/N=C/c1ccc(Cl)cc1)O3 (stereo not drawn) | 0.388 µM | > 52 µM | 1.38 µM | > 57.9 µM | 2.86 µM | 29.9 µM | 0.489 µM | > 100 µM | 12.2 µM | 51.3 µM | 0.36 µM | > 34.9 | 3.62 µM | 40 µM | 0.172 µM | 0.407 | 0.265 µM | 20.7 µM | 0.392 µM | > 100
6 | CCCCCCN1C(=O)/C(=c2\sc3n(c2=O)C2C(NN=3)N(CC)C(=O)N2CC)c2ccccc21 (stereo not drawn) | 1.5 µM | > 50 µM | 6.34 µM | > 50 µM | 3.06 µM | > 50 µM | 1.47 µM | > 50 µM | 1.72 µM | > 50 µM | 1.73 µM | > 50 | 2.67 µM | > 50 µM | 0.972 µM | 2.16 | 1.82 µM | > 50 µM | 2.48 µM | > 50
7 | CC(C)(C)Cn1c(N)nc2ccc(-c3[nH]c(C(C)(C)C)nc3-c3ccc(F)cc3)nc21 | 4.52 µM | 19.3 µM | 12.1 µM | 26 µM | 13.1 µM | 27.1 µM | 8.38 µM | 28.7 µM | 4.56 µM | 18.9 µM | 10.5 µM | 47.9 | 4.36 µM | 18.5 µM | 11.2 µM | 24.1 | 3.91 µM | 21.1 µM | 12.6 µM | > 62.5
8 | COc1cc(N2CCC(N(C)C)CC2)ccc1Nc1ncc(Cl)c(Nc2ccccc2P(C)(C)=O)n1 | 0.261 µM and 0.0794 µM | 2.99 µM and 0.785 µM | 2.98 µM and 0.791 µM | 9.97 µM and 4.35 µM | 1.14 µM and 0.728 µM | 4.16 µM and 2.99 µM | 0.617 µM and 0.218 µM | 8.54 µM and > 7.6 µM | 0.491 µM and 0.196 µM | 3.02 µM and 2.62 µM | < 0.0113 µM and 0.0295 µM | – | 0.517 µM and 0.43 µM | 2.01 µM and > 4.16 µM | 1.94 µM and 0.972 µM | > 87.6 | 3.24 µM and 0.326 µM | 10.5 µM and > 4.56 µM | 3.73 µM and 0.506 µM | > 96.6
9 | O=[N+]([O-])c1cccc(-c2nc3sccn3c2-c2ccnc(NCCCNS(=O)(=O)c3ccc(F)cc3)n2)c1 | 2.9 µM | > 100 µM | 2.14 µM | 7.03 µM | 2.06 µM | 5.43 µM | 2.73 µM | > 100 µM | 4.34 µM | > 100 µM | 2.53 µM | > 100 | 4.17 µM | > 100 µM | 2.55 µM | 7.93 | 2.33 µM | > 100 µM | 1.14 µM | 4.82
10 | COc1cc2c(cc1OCCCCCOc1cc(-c3ccc(F)cc3)nc(C)n1)N=C[C@@H]1CCCN1C2=O | > 45.1 µM | > 100 µM | > 32.8 µM | > 61.1 µM | > 48.3 µM | > 68.7 µM | > 41.2 µM | > 66.3 µM | > 49.9 µM | > 75.3 µM | – | > 57.9 | > 51.6 µM | > 78.8 µM | > 45.3 µM | > 67.5 | > 41.7 µM | > 66.9 µM | > 33.3 µM | > 60.5
11 | CN(C)c1cccc2[nH]c(-c3[nH]ncc3Nc3ccnc(N)n3)nc12 | 0.0286 µM | 0.638 µM | 0.0165 µM | 0.0979 µM | 0.021 µM | 0.0692 µM | 0.0331 µM | 1.15 µM | 0.0399 µM | 1.01 µM | < 0.01 µM | 5.47 | 0.073 µM | 2.38 µM | 0.0237 µM | 0.719 | < 0.01 µM | 1.01 µM | 0.0147 µM | 0.276

— PubChem BioAssay (NCI)
